Source: patent US4801697A, “Physiologically active substance TPI and production thereof” (Toyo Jozo Kabushiki Kaisha, priority 1985, dated 1989)
≈ marks a conversion by molar mass, not a printed value.

Assays:
[1] = test system: bovine heart PDE; test: bovine heart PDE inhibitory action (5'-AMP produced from c-AMP measured by HPLC); assay type: biochemical; conditions: 0.4 mM c-AMP, 30 μg protein PDE, pH 7.5, 30° C., 30 minutes
Experimental: 40 mM Tris-HCl buffer solution (pH 7.5), 2 mM magnesium chloride, 0.4 mM c-AMP, PDE (30 μg protein, Boehringer Mannheim Co.) and TPI are combined to form a reaction mixture (1.0 ml) and the same is incubated at 30° C. for 30 minutes.

[2] = Solubility; assay type: physicochemical; conditions: for Solubility: insoluble: hexane, benzene and petroleum ether; for Solubility: soluble: lower alcohol such as methanol, ethanol and butanol, ethyl acetate, dimethylsulfoxide, aqueous alkali
[3] = test system: mice; test: acute toxicity, intraperitoneal injection in mice; assay type: in vivo; conditions: 100 mg/kg intraperitoneally

Structure (SMILES) | IC50 concentration [1] [µg/mL] | Solubility: insoluble [2] | Solubility: soluble [2] | Solubility: soluble ([2]; chloroform) | deaths [3]
CCCCCCCc1cc(OC(=O)c2c(CCCCCCC)cc(O)cc2O[C@@H]2O[C@H](COC(C)=O)[C@H](O)[C@H](O)[C@H]2O)cc(O)c1C(=O)O [TPI-4] | 3.5 (≈ 5.07 µM) | Insoluble | Soluble | – | –
Cn1c(=O)c2[nH]cnc2n(C)c1=O [Teophyllin, theophyllin, reference compound] | 470 (≈ 2610 µM) | – | – | – | –
CCCCCCCc1cc(OC(=O)c2c(O)cc(O)cc2CCCCCCC)cc(O)c1C(=O)O [TPI-5] | 2.3 (≈ 4.73 µM) | Insoluble | – | Soluble | –
CCCCCCCc1cc(OC(=O)c2c(CCCCCCC)cc(O)cc2O[C@@H]2O[C@H](CO)[C@H](O)[C@H](O)[C@H]2O)cc(O)c1C(=O)O [TPI-2] | 5.4 (≈ 8.32 µM) | Insoluble | Soluble | – | –
COc1ccc(Cc2nccc3cc(OC)c(OC)cc23)cc1OC [Papaverine, papaverine, reference compound] | 25 (≈ 73.7 µM) | – | – | – | –
COC(=O)C1=C(C)NC(C)=C(C(=O)OCCN(C)Cc2ccccc2)C1c1cccc([N+](=O)[O-])c1 (stereo not shown) [Nicardipine, nicardipine, reference compound] | 6.0 (≈ 12.5 µM) | – | – | – | –
CCCCCCCc1cc(OC(=O)c2c(CCCCCCC)cc(O)cc2O[C@@H]2O[C@H](CO)[C@@H](O)[C@H](O)[C@H]2O)cc(O)c1C(=O)O [TPI-1] | 2.8 (≈ 4.32 µM) | Insoluble | Soluble | – | No deaths occurred
CCCCCCCc1cc(OC(=O)c2c(CCCCCCC)cc(O)cc2O[C@@H]2O[C@H](COC(C)=O)[C@@H](O)[C@H](O)[C@H]2O)cc(O)c1C(=O)O [TPI-3] | 2.8 (≈ 4.05 µM) | Insoluble | Soluble | – | –
